pIC50: −log10 of the molar value.
System: SW 1271 complex tumor spheroid viability
Experiment: Anticancer human tumor SW 1271 cell line growth inhibition;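 further: spheroids exposed to agents for seven days before readout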;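 on viability, T/C: percent of DMSO vehicle control luminescence so 100% = vehicle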
Conditions: for pIC50: curve of first compound; for viability, T/C: stronger effect = lower value
Source text: Multicellular complex tumor spheroid response to DNA repair inhibitors in combination with DNA-damaging drugs
This study explores the anticancer activities of DNA-damaging drugs and inhibitors of DNA damage repair, both as single agents and in combinations. Complex tumor spheroids comprised of malignant cells, endothelial cells and mesenchymal stem cells served as an in vitro model for human solid tumors. This model system incorporates physiologically relevant features and patient-derived or established malignant cell lines with clinically relevant genetic alterations from many tumor types. Twenty-six patient-derived or established malignant cell lines were evaluated representing sarcoma, melanoma, small cell lung cancer (SCLC), non-small cell lung cancer (NSCLC), as well as bladder, ovarian and pancreatic cancers. The concentration ranges selected for each drug and investigational agent were based upon clinically achievable concentrations if the clinical Cmax of the agent was known.
Compounds. The drugs and compounds olaparib (NSC753686), talazoparib (NSC767125), berzosertib (NSC777718), elimusertib (NSC800525), nedisertib (NSC802822), VX-984 (NSC792969), AZD-1390 (NSC803789), temozolomide (NSC362856), topotecan (NSC609699), trabectedin (NSC813783), staurosporine (NSC755774), and gemcitabine (NSC613327) were obtained from the National Cancer Institute (NCI) Developmental Therapeutics Program Chemical Repository. The FDA-approved anticancer drug set is available from the Developmental Therapeutics Program at https://dtp.cancer.gov/organization/dscb/obtaining/available_plates.htm. […] The stock solutions were prepared in dimethyl sulfoxide (DMSO, Sigma-Aldrich, St. Louis, MO, cat. D2650) at 400-fold the tested concentration and stored at -70 degrees C. Prior to their use, the stock solutions were diluted in fresh medium and the final DMSO concentration in the assay was 0.25% (v/v). All drugs and investigational agents were tested over a range starting from a high concentration at or near the clinical Cmax and decreasing in half-log increments. If the clinical Cmax for an agent had not been determined, the highest concentration tested was 10 microM.
Cell Lines. The patient-derived cancer cell (PDC) lines: 156681-154-R-J1-PDC, 283228-195-R-J1-PDC, 287954-098-R-J1-PDC, 292921-168-R-J2-PDC, 349418-098-R-PDC, 425362-245-T-J1-PDC, 556581-035-R-J1-PDC, and BL0293-F563-PDC were received from the NCI Patient-Derived Models Repository (PDMR, https://pdmr.cancer.gov). The established cell lines HS-SY-2 (RRID:CVCL_8719), MPNST, and SYO-1 (RRID:CVCL_7146) were obtained from the Sloan Kettering Institute. The alveolar soft parts sarcoma cell line ASPS-1 (RRID:CVCL_S738) was established at the NCI and grown from internal seed stocks. The following established cell lines were purchased from the American Type Culture Collection (ATCC, Manassas, VA): G-401 (ATCC, cat. CRL-1441, RRID:CVCL_0270), SW982 (ATCC, cat. HTB-93, RRID:CVCL_1734), VA-ES-BJ (ATCC, cat. CRL-2138, RRID:CVCL_1785), NCI-H719 (ATCC, cat. CRL-5837, RRID:CVCL_1582), NCI-H196 (ATCC, cat. CRL-5823, RRID:CVCL_1509), NCI-H841 (ATCC, cat. CRL-5845, RRID:CVCL_1595), NCI-H1618 (ATCC, cat. CRL-5879, RRID:CVCL_1480), NCI-H1876 (ATCC, cat. CRL-5902, RRID:CVCL_1503), DMS 114 (ATCC, cat. CRL-2066; RRID:CVCL_1174), NCI-H211 (ATCC, cat. CRL-5824; RRID:CVCL_1529), and SW 1271 (ATCC, cat. CRL-2177, RRID:CVCL_1716). The small cell lung cancer cell line COR-L88 was purchased from Sigma-Aldrich (cat. 92031917-1VL, RRID:CVCL_1141). The non-small cell lung cancer cell lines NCI-H226 (RRID:CVCL_1544) and NCI-H322M (RRID:CVCL_1557) were established at the NCI and grown from internal seed stocks. Pooled donor human umbilical vein endothelial cells (HUVEC, Lonza, cat. CC-2519) and human mesenchymal stem cells (hMSC, Lonza, cat. PT-2501) were purchased from Lonza (Walkersville, MD).
Cell Culture. All cells were maintained in an incubator at 37 degrees C and 5% CO2 with 95% humidity. […]

`Cc1cc(C)c(CNC(=O)c2cc(-c3ccc(CN4CCOCC4)cc3)cc3c2cnn3C2CCCC2)c(=O)[nH]1` + CC[C@@]1(O)C(=O)OCc2c1cc1n(c2=O)Cc2cc3c(CN(C)C)c(O)ccc3nc2-1 gave a pIC50 (second compound 0.003 µM) of 5.67, a pIC50 (second compound 0.00949 µM) of 7.48 and a pIC50 (second compound 0.03 µM) of over 7.50. For the same compound, the pIC50 (second compound 0.0949 µM) was over 7.50, the pIC50 (second compound 0.3 µM) was over 7.50 and the viability, T/C (second compound 0.003 µM, first compound 0.0316 µM) was 83.2%. The viability, T/C (second compound 0.003 µM, first compound 0.1 µM) was 84.7%, the viability, T/C (second compound 0.003 µM, first compound 0.316 µM) was 70.6% and the viability, T/C (second compound 0.003 µM, first compound 1 µM) was 59.8%. For the same compound, the viability, T/C (second compound 0.003 µM, first compound 3.16 µM) was 45.5%, the viability, T/C (second compound 0.003 µM, first compound 10 µM) was 34.9% and the viability, T/C (second compound 0.00949 µM, first compound 0.0316 µM) was 51.3%. It also gave a viability, T/C (second compound 0.00949 µM, first compound 0.1 µM) of 38.2%, a viability, T/C (second compound 0.00949 µM, first compound 0.316 µM) of 32.5% and a viability, T/C (second compound 0.00949 µM, first compound 1 µM) of 26.9%. It also gave a viability, T/C (second compound 0.00949 µM, first compound 3.16 µM) of 20.4%, a viability, T/C (second compound 0.00949 µM, first compound 10 µM) of 16.3% and a viability, T/C (second compound 0.03 µM, first compound 0.0316 µM) of 28.2%. It also gave a viability, T/C (second compound 0.03 µM, first compound 0.1 µM) of 26.4%, a viability, T/C (second compound 0.03 µM, first compound 0.316 µM) of 24.4% and a viability, T/C (second compound 0.03 µM, first compound 1 µM) of 27%. For the same compound, the viability, T/C (second compound 0.03 µM, first compound 3.16 µM) was 24.9%, the viability, T/C (second compound 0.03 µM, first compound 10 µM) was 22.4% and the viability, T/C (second compound 0.0949 µM, first compound 0.0316 µM) was 30.7%. For the same compound, the viability, T/C (second compound 0.0949 µM, first compound 0.1 µM) was 27%, the viability, T/C (second compound 0.0949 µM, first compound 0.316 µM) was 27.7% and the viability, T/C (second compound 0.0949 µM, first compound 1 µM) was 25.6%. The viability, T/C (second compound 0.0949 µM, first compound 3.16 µM) was 23.5%, the viability, T/C (second compound 0.0949 µM, first compound 10 µM) was 22.6% and the viability, T/C (second compound 0.3 µM, first compound 0.0316 µM) was 15.7%. The viability, T/C (second compound 0.3 µM, first compound 0.1 µM) was 12.8%, the viability, T/C (second compound 0.3 µM, first compound 0.316 µM) was 11% and the viability, T/C (second compound 0.3 µM, first compound 1 µM) was 9.77%. The viability, T/C (second compound 0.3 µM, first compound 3.16 µM) was 6.12% and the viability, T/C (second compound 0.3 µM, first compound 10 µM) was 4.56%.

Compound `Cc1sc2c(c1C)C(c1ccc(Cl)cc1)=NC(CC(=O)Nc1ccc(O)cc1)c1nnc(C)n1-2` (stereo not given) + CC[C@@]1(O)C(=O)OCc2c1cc1n(c2=O)Cc2cc3c(CN(C)C)c(O)ccc3nc2-1 has a pIC50 (second compound 0.003 µM) of 7.29, a pIC50 (second compound 0.00949 µM) of 7.97 and a pIC50 (second compound 0.03 µM) of over 8.02. The pIC50 (second compound 0.0949 µM) was over 8.02, the pIC50 (second compound 0.3 µM) was over 8.02 and the viability, T/C (second compound 0.003 µM, first compound 0.00949 µM) was 81.4%. It also gave a viability, T/C (second compound 0.003 µM, first compound 0.03 µM) of 71.3%, a viability, T/C (second compound 0.003 µM, first compound 0.0949 µM) of 25.5% and a viability, T/C (second compound 0.003 µM, first compound 0.3 µM) of 3.11%. It also gave a viability, T/C (second compound 0.003 µM, first compound 0.949 µM) of 1.06%, a viability, T/C (second compound 0.003 µM, first compound 3 µM) of 1.11% and a viability, T/C (second compound 0.00949 µM, first compound 0.00949 µM) of 52.3%. It also gave a viability, T/C (second compound 0.00949 µM, first compound 0.03 µM) of 32.1%, a viability, T/C (second compound 0.00949 µM, first compound 0.0949 µM) of 12.8% and a viability, T/C (second compound 0.00949 µM, first compound 0.3 µM) of 2.4%. It also gave a viability, T/C (second compound 0.00949 µM, first compound 0.949 µM) of 1.61%, a viability, T/C (second compound 0.00949 µM, first compound 3 µM) of 1.61% and a viability, T/C (second compound 0.03 µM, first compound 0.00949 µM) of 25.2%. It also gave a viability, T/C (second compound 0.03 µM, first compound 0.03 µM) of 24.4%, a viability, T/C (second compound 0.03 µM, first compound 0.0949 µM) of 14.6% and a viability, T/C (second compound 0.03 µM, first compound 0.3 µM) of 2.67%. For the same compound, the viability, T/C (second compound 0.03 µM, first compound 0.949 µM) was 1.56%, the viability, T/C (second compound 0.03 µM, first compound 3 µM) was 1.13% and the viability, T/C (second compound 0.0949 µM, first compound 0.00949 µM) was 29%. The viability, T/C (second compound 0.0949 µM, first compound 0.03 µM) was 24.5%, the viability, T/C (second compound 0.0949 µM, first compound 0.0949 µM) was 13.2% and the viability, T/C (second compound 0.0949 µM, first compound 0.3 µM) was 3.31%. For the same compound, the viability, T/C (second compound 0.0949 µM, first compound 0.949 µM) was 1.34%, the viability, T/C (second compound 0.0949 µM, first compound 3 µM) was 2.04% and the viability, T/C (second compound 0.3 µM, first compound 0.00949 µM) was 16.9%. It also gave a viability, T/C (second compound 0.3 µM, first compound 0.03 µM) of 16.3%, a viability, T/C (second compound 0.3 µM, first compound 0.0949 µM) of 7.74% and a viability, T/C (second compound 0.3 µM, first compound 0.3 µM) of 1.97%. For the same compound, the viability, T/C (second compound 0.3 µM, first compound 0.949 µM) was 0.91% and the viability, T/C (second compound 0.3 µM, first compound 3 µM) was 0.97%.
